According to PMC8948292, “Combining PEGylated mito-atovaquone with MCT and Krebs cycle redox inhibitors as a potential strategy to abrogate tumor cell proliferation” (Scientific Reports, 2022):
pIC50: −log10 of the molar value.

Experiments:
[1] = biological target: mitochondrial complex I (MiaPaCa-2 cells) (Homo sapiens, UniProt O75251+O75306+P03886); assay: Complex I-dependent oxygen consumption in permeabilized cells, Seahorse XF-96; type: cell-based; conditions: 24 h, with Mito-PEG5-ATO
Method: Mitochondrial oxygen consumption was measured using the Seahorse XF-96 Extracellular Flux Analyzer (Agilent, North Billerica, MA)[3],[33],[67],[68]. To determine the intact cell mitochondrial function of MiaPaCa-2 cells in response to Mito-PEG-ATO analogs, we used the bioenergetic function assay previously described[2],[3]. […] From these measurements, indices of mitochondrial function were determined as previously described[2],[3]. For mitochondrial complex activities assays, after cells were treated with Mito-PEG-ATO analogs for 24 h, the OCR-based assessment of mitochondrial complex activities was carried out on acutely permeabilized cells in the presence of different mitochondrial substrates, i.e., pyruvate/malate for complex I and duroquinol for complex III[3],[32],[34],[69]. Rotenone, malonate, and antimycin A (Sigma-Aldrich, St. Louis, MO) were used as specific inhibitors of mitochondrial complexes I, II, and III, respectively. Briefly, cells that were intact after treatments were immediately permeabilized using the Seahorse XF Plasma Membrane Permeabilizer (Agilent). The mitochondrial complex I-induced OCR was assayed in mannitol and sucrose buffer[69] containing 10 mM pyruvate and 1.5 mM malate (substrates for complex I) and 10 mM malonate (which inhibits complex II activities). […] The IC50 values were determined as previously reported.

U87MG cells = assay: Cell proliferation (cell confluence), IncuCyte Live-Cell Analysis System; type: cell-based, human; conditions: Mito-PEG5-ATO 0.15 µM, AZD-3965 600 µM
Method: The following cell lines were obtained from the American Type Culture Collection (Manassas, VA), where they were regularly authenticated: MiaPaCa-2 (ATCC Cat# CRL-1420, human pancreatic cancer cells), U87MG (ATCC Cat# HTB-14, human brain cancer cells), A549 (ATCC Cat# CCL-185, lung cancer cells), and HCT-116 (ATCC Cat# CCL-247, colon cancer cells). All cell lines were grown at 37 °C in 5% carbon dioxide. MiaPaCa-2 cells were maintained in Dulbecco's Modified Eagle Medium (Thermo Fisher Scientific, Waltham, MA; Cat# 11965) supplemented with 10% fetal bovine serum. U87MG, A549, and HCT-116 cells were maintained in RPMI 1640 medium (Thermo Fisher Scientific, Cat# 11875), supplemented with 10% fetal bovine serum. All cells were stored in liquid nitrogen and used within 20 passages after thawing.
The IncuCyte Live-Cell Analysis System was used to monitor cell proliferation[3],[33],[67]. As shown in previous publications[3],[67], this imaging system is probe-free and noninvasive, and enables continuous monitoring of cell confluence over several days. […] Cells were then treated with Mito-PEG-ATO analogs, and the cell confluency was recorded over several days in the IncuCyte Live-Cell Analysis System.
Figure S4. […] (a) Effects of Mito-PEG-ATO analogs on the proliferation of U87MG cells were monitored in the IncuCyte Live-Cell Analysis System. […]

MiaPaCa-2 cells = assay: Cell death by SYTOX Green staining, IncuCyte; conditions: Mito-PEG5-ATO 0.04 µM, AZD-3965 200 µM, 72 h
[2] = test system: mitochondrial respiration (OCR) in intact MiaPaCa-2 cells; assay: Intact cell mitochondrial respiration (basal OCR), Seahorse XF-96; type: cell-based, human
Outline: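 MiaPaCa-2 cells were treated 24 h with Mito-PEG-ATO analogs, and OCR was read on a Seahorse XF-96; basal respiration was taken in intact cells. For complex I, permeabilized cells received 10 mM pyruvate, 1.5 mM malate and 10 mM malonate; for complex III, 0.5 mM duroquinol, 1 µM rotenone and 10 mM malonate, both in mannitol/sucrose buffer. IC50 values were derived from the OCR data.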

Sequence of mitochondrial complex I (MiaPaCa-2 cells) (O75306 34-463): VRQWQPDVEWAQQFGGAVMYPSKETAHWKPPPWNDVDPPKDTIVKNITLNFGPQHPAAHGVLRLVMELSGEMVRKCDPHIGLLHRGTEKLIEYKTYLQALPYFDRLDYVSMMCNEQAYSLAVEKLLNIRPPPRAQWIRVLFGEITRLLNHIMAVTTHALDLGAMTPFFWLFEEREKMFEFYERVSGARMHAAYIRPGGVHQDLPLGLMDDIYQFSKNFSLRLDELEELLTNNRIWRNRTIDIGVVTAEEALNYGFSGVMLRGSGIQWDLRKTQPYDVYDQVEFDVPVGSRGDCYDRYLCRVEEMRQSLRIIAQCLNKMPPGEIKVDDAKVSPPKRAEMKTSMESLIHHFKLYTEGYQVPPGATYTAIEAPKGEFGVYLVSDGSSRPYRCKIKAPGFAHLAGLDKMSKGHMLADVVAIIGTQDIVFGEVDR
Sequence of mitochondrial complex I (MiaPaCa-2 cells) (O75251 39-213): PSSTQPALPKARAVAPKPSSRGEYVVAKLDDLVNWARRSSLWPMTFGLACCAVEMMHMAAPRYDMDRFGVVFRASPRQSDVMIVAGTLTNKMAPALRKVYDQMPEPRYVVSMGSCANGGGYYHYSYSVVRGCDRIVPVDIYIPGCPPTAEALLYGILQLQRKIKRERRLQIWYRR
Sequence of mitochondrial complex I (MiaPaCa-2 cells) (P03886 whole entry): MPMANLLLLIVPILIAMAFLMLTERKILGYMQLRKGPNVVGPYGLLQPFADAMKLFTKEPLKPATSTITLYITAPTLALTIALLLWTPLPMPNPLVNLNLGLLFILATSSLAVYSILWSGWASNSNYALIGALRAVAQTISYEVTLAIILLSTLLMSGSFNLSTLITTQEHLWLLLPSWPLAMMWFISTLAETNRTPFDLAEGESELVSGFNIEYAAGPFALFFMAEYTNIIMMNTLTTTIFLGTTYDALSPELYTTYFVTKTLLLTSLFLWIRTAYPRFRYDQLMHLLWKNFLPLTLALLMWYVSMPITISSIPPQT

Structure (SMILES) | Effect on the decrease in complex I-induced oxygen consumption induced by Mito-PEG5-ATO [1] | Inhibition of cell proliferation in combination with Mito-PEG5-ATO (U87MG cells) | Cell death / cell toxicity (SYTOX Green counts) (MiaPaCa-2 cells) | OCR (pmol/min/µg protein) ([2]; 0.003 µM, 24 h treatment, intact MiaPaCa-2 cells, baseline OCR, mean, n=4) | OCR (basal, intact cell mitochondrial respiration) ([2]; 0.01 µM, 24 h treatment, intact MiaPaCa-2 cells, mean, n=4) [pmol/min/µg protein] | OCR (basal, intact cell mitochondrial respiration) ([2]; 0.03 µM, 24 h treatment, intact MiaPaCa-2 cells, mean, n=4) [pmol/min/µg protein] | OCR (basal, intact cell mitochondrial respiration) ([2]; 0.05 µM, 24 h treatment, intact MiaPaCa-2 cells, mean, n=4) [pmol/min/µg protein] | OCR (basal, intact cell mitochondrial respiration) ([2]; 0.075 µM, 24 h treatment, intact MiaPaCa-2 cells, mean, n=4) [pmol/min/µg protein] | OCR (basal, intact cell mitochondrial respiration) ([2]; 0.1 µM, 24 h treatment, intact MiaPaCa-2 cells, mean, n=4) [pmol/min/µg protein] | OCR (basal, intact cell mitochondrial respiration) ([2]; 0.3 µM, 24 h treatment, intact MiaPaCa-2 cells, mean, n=4) [pmol/min/µg protein] | OCR (basal, intact cell mitochondrial respiration) ([2]; 0.5 µM, 24 h treatment, intact MiaPaCa-2 cells, mean, n=4) [pmol/min/µg protein] | OCR (basal, intact cell mitochondrial respiration) ([2]; 1 µM, 24 h treatment, intact MiaPaCa-2 cells, mean, n=4) [pmol/min/µg protein] | OCR (basal, intact cell mitochondrial respiration) ([2]; 3 µM, 24 h treatment, intact MiaPaCa-2 cells, mean, n=4) [pmol/min/µg protein] | OCR (basal, intact cell mitochondrial respiration) ([2]; 10 µM, 24 h treatment, intact MiaPaCa-2 cells, mean, n=4) [pmol/min/µg protein] | pIC50 ([2]; Homo sapiens, MIA PaCa-2, 24 h, read-out: IC50, inhibition of basal OCR in intact cells)
Cc1[nH]nc(C(F)(F)F)c1Cc1sc2c(c1C(=O)N1C[C@](C)(O)CO1)c(=O)n(C)c(=O)n2C(C)C [AZD-3965] | Neither AZD-3965 nor V-9302 significantly affected | Synergistic inhibition | – | – | – | – | – | – | – | – | – | – | – | – | –
O=C1C(OCCOCCOCCOCCOCC[P+](c2ccccc2)(c2ccccc2)c2ccccc2)=C([C@H]2CC[C@H](c3ccc(Cl)cc3)CC2)C(=O)c2ccccc21.[Br-] [Mito-PEG5-ATO, [14-((3-(trans-4-(4-chlorophenyl)cyclohexyl)-1,4-dioxo-1,4-dihydronaphthalen-2-yl)oxy)-3,6,9,12-tetraoxatetradecyl]triphenylphosphonium bromide] | – | – | similarly low SYTOX Green counts | 13.36 | 12.51 | 9.91 | 9.30 | 8.05 | 5.43 | 0.36 | 1.83 | 1.40 | 0.84 | 0.55 | 7.24
